Laboratory results as given in patent US20260078120A1, “SUBSTITUTED PYRIDOPYRIMIDINONES” (MIRATI THERAPEUTICS, INC., priority 2022, published 2026).

Legend:
[1] = test system: T47D (PI3Kα H1047R mutant) cells; assay: CellTiter-Glo 2.0 luminescent cell viability assay, 72 hours, T47D cells; assay type: cell-based; conditions: Homo sapiens, T47D, 72 h, T47D (PI3Kα H1047R mutant) cells, CellTiter-Glo, approximately 72 hours; read-out: T47D (H1047R mutant) Viability IC50
How it was run: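 Viability was measured by CellTiter-Glo 2.0 luminescence after approximately 72 h of compound exposure at 37° C. Plating was 1000 cells per well the day before dosing, with ten 1:4 dilutions from a 10 µM top concentration. Values as percent of vehicle were fitted by variable-slope log(inhibitor) regression to give IC50.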

[2] = test system: SKBR3 (PI3Kα wild type) cells; assay: CellTiter-Glo 2.0 luminescent cell viability assay, 72 hours, SKBR3 cells; assay type: cell-based; conditions: Homo sapiens, SK-BR-3, 72 h, SKBR3 (PI3Kα wild type) cells, CellTiter-Glo, approximately 72 hours; read-out: SKBR3 (WT) Viability IC50
How it was run: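 Viability measured via CTG luminescence following roughly 72 hours of compound exposure at 37° C. Dosing used a 10 um starting concentration diluted 1:4 over 10 points; percent-of-vehicle data fitted with a variable-slope four-parameter model for IC50.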

| IC50 [1] [nM] | IC50 [2] [nM] | Structure (SMILES) |
| --- | --- | --- |
| 392 | > 10000 | Cc1cc([C@@H](C)Nc2ccccc2C(=O)O)c2nc(N3Cc4nccnc4C3)c(C)c(=O)n2c1 [Example 11-138, (R)-2-((1-(2-(5,7-dihydro-6H-pyrrolo[3,4-b]pyrazin-6-yl)-3,7-dimethyl-4-oxo-4H-pyrido[1,2-a]pyrimidin-9-yl)ethyl)amino)benzoic acid] |
| 2440 | > 10000 | Cc1cc([C@@H](C)Nc2ccccc2C(=O)O)c2nc(NC[C@@H]3CCOC3)c(C#N)c(=O)n2c1 [Example 11-192, 2-(((R)-1-(3-cyano-7-methyl-4-oxo-2-((((S)-tetrahydrofuran-3-yl)methyl)amino)-4H-pyrido[1,2-a]pyrimidin-9-yl)ethyl)amino)benzoic acid] |
| > 10000 | > 10000 | Cc1cc(CNc2ccccc2C(=O)O)c2nc(N3CCCCC3)cc(=O)n2c1 [Example 11-412] |
| 100 | > 10000 | Cc1cc([C@@H](C)Nc2ccccc2C(=O)O)c2nc(N3CC4CCC(C3)C4O)c(C)c(=O)n2c1 (stereo partly drawn) [Example 10-146, 2-(((1R)-1-(2-(8-hydroxy-3-azabicyclo[3.2.1]octan-3-yl)-3,7-dimethyl-4-oxo-4H-pyrido[1,2-a]pyrimidin-9-yl)ethyl)amino)benzoic acid] |
| 162 | > 10000 | Cc1cc([C@@H](C)Nc2ccccc2C(=O)O)c2nc(N3CC(F)(F)C(F)(F)C3)c(C#N)c(=O)n2c1 [Example 11-136, (R)-2-((1-(3-cyano-7-methyl-4-oxo-2-(3,3,4,4-tetrafluoropyrrolidin-1-yl)-4H-pyrido[1,2-a]pyrimidin-9-yl)ethyl)amino)benzoic acid] |
| 590 | > 10000 | Cc1cc([C@@H](C)Nc2ccccc2C(=O)O)c2nc(NCC3CCOC3)c(C#N)c(=O)n2c1 (stereo partly drawn) [Example 11-194, 2-(((1R)-1-(3-cyano-7-methyl-4-oxo-2-(((tetrahydrofuran-3-yl)methyl)amino)-4H-pyrido[1,2-a]pyrimidin-9-yl)ethyl)amino)benzoic acid] |
| 107 | > 10000 | Cc1cc([C@@H](C)Nc2ccccc2C(=O)O)c2nc(N3CC4CCC3C(O)C4)c(C)c(=O)n2c1 (stereo partly drawn) [Example 10-147, 2-(((1R)-1-(2-(6-hydroxy-2-azabicyclo[2.2.2]octan-2-yl)-3,7-dimethyl-4-oxo-4H-pyrido[1,2-a]pyrimidin-9-yl)ethyl)amino)benzoic acid] |
| 416 | > 10000 | Cc1cc([C@@H](C)Nc2ccccc2C(=O)O)c2nc(N3CC(c4ccccc4)C3)c(C)c(=O)n2c1 [Example 11-18, (R)-2-((1-(3,7-dimethyl-4-oxo-2-(3-phenylazetidin-1-yl)-4H-pyrido[1,2-a]pyrimidin-9-yl)ethyl)amino)benzoic acid] |
| > 10000 | > 10000 | C#CC(Nc1ccccc1C(=O)O)c1cc(C)cn2c(=O)c(C)c(N3CCC(F)(F)CC3)nc12 (stereo not shown) [Example 11-241, 2-((1-(2-(4,4-difluoropiperidin-1-yl)-3,7-dimethyl-4-oxo-4H-pyrido[1,2-a]pyrimidin-9-yl)prop-2-yn-1-yl)amino)benzoic acid] |
| 174 | 10000 | Cc1cc([C@@H](C)Nc2ccc(Cl)nc2C(=O)O)c2nc(N3CCN(c4ccc(C#N)cc4C)CC3)c(C)c(=O)n2c1 [Example 11-133, (R)-6-chloro-3-((1-(2-(4-(4-cyano-2-methylphenyl)piperazin-1-yl)-3,7-dimethyl-4-oxo-4H-pyrido[1,2-a]pyrimidin-9-yl)ethyl)amino)picolinic acid] |
| 158 | > 10000 | Cc1cc([C@@H](C)Nc2ccccc2C(=O)O)c2nc(N3CC[C@H](C)C(F)(F)C3)c(C)c(=O)n2c1 [Example 11-60, 2-(((R)-1-(2-((S)-3,3-difluoro-4-methylpiperidin-1-yl)-3,7-dimethyl-4-oxo-4H-pyrido[1,2-a]pyrimidin-9-yl)ethyl)amino)benzoic acid] |
| 2800 | > 10000 | Cc1cc([C@@H](C)Nc2ccccc2C(=O)O)c2nc(N3CC4(COC4)C3)c(C#N)c(=O)n2c1 [Example 11-321, (R)-2-((1-(3-cyano-7-methyl-4-oxo-2-(2-oxa-6-azaspiro[3.3]heptan-6-yl)-4H-pyrido[1,2-a]pyrimidin-9-yl)ethyl)amino)benzoic acid] |
| 3600 | > 10000 | Cc1cc([C@@H](C)Nc2ccccc2C(=O)O)c2nc(-c3c[nH]cn3)c(C)c(=O)n2c1 [Example 11-235, (R)-2-((1-(2-(1H-imidazol-4-yl)-3,7-dimethyl-4-oxo-4H-pyrido[1,2-a]pyrimidin-9-yl)ethyl)amino)benzoic acid] |
| 221 | > 10000 | Cc1cc([C@@H](C)Nc2ccccc2C(=O)O)c2nc(NC[C@@H]3CC3(F)F)c(C#N)c(=O)n2c1 [Example 11-157, 2-(((R)-1-(3-cyano-2-((((S)-2,2-difluorocyclopropyl)methyl)amino)-7-methyl-4-oxo-4H-pyrido[1,2-a]pyrimidin-9-yl)ethyl)amino)benzoic acid] |
| 532 | 890 | Cc1cc(C(C)Nc2ccccc2C(=O)O)c2nc(N3CCCCC3)c(C(F)(F)F)c(=O)n2c1 (stereo not shown) [Example 11-415, 2-((1-(7-methyl-4-oxo-2-(piperidin-1-yl)-3-(trifluoromethyl)-4H-pyrido[1,2-a]pyrimidin-9-yl)ethyl)amino)benzoic acid] |
| 145 | > 10000 | Cc1cc([C@@H](C)Nc2ccccc2C(=O)O)c2nc(N3CCN(c4cn(C)nc4C(F)(F)F)CC3)c(C#N)c(=O)n2c1 [Example 11-173, (R)-2-((1-(3-cyano-7-methyl-2-(4-(1-methyl-3-(trifluoromethyl)-1H-pyrazol-4-yl)piperazin-1-yl)-4-oxo-4H-pyrido[1,2-a]pyrimidin-9-yl)ethyl)amino)benzoic acid] |
| 187 | 4550 | Cc1cc([C@@H](C)Nc2ccccc2C(=O)O)c2nc(N3CCN(c4ccc(C(F)(F)F)cc4C#N)C[C@H]3C)c(C)c(=O)n2c1 [Example 11-79, 2-(((R)-1-(2-((R)-4-(2-cyano-4-(trifluoromethyl)phenyl)-2-methylpiperazin-1-yl)-3,7-dimethyl-4-oxo-4H-pyrido[1,2-a]pyrimidin-9-yl)ethyl)amino)benzoic acid] |
| 114 | > 10000 | Cc1cc([C@@H](C)Nc2ccccc2C(=O)O)c2nc(N3CCC(c4cc[nH]n4)CC3)c(C)c(=O)n2c1 [Example 11-252, (R)-2-((1-(2-(4-(1H-pyrazol-3-yl)piperidin-1-yl)-3,7-dimethyl-4-oxo-4H-pyrido[1,2-a]pyrimidin-9-yl)ethyl)amino)benzoic acid] |
| > 10000 | > 10000 | C[C@H](Nc1ccccc1C(=O)O)c1cc(C(F)F)cn2c(=O)c(C#N)c(N3CCC(F)(F)CC3)nc12 [Example 11-169, (S)-2-((1-(3-cyano-7-(difluoromethyl)-2-(4,4-difluoropiperidin-1-yl)-4-oxo-4H-pyrido[1,2-a]pyrimidin-9-yl)ethyl)amino)benzoic acid] |
| 323 | > 10000 | Cc1cc([C@@H](C)Nc2ccccc2C(=O)O)c2nc(N3CC4CC3C4)c(C)c(=O)n2c1 [Example 11-127, (R)-2-((1-(2-(2-azabicyclo[2.1.1]hexan-2-yl)-3,7-dimethyl-4-oxo-4H-pyrido[1,2-a]pyrimidin-9-yl)ethyl)amino)benzoic acid] |
| > 10000 | > 10000 | Cc1cc([C@@H](C)Nc2ccncc2C(=O)O)c2nc(N3Cc4ccccc4C3)c(C)c(=O)n2c1 [Example 11-275, (R)-4-((1-(2-(isoindolin-2-yl)-3,7-dimethyl-4-oxo-4H-pyrido[1,2-a]pyrimidin-9-yl)ethyl)amino)nicotinic acid] |
| 1110 | > 10000 | Cc1cc([C@@H](C)Nc2ccccc2C(=O)O)c2nc(N3CC4(CN(c5ccc(C#N)cc5)C4)C3)c(C#N)c(=O)n2c1 [Example 11-190, (R)-2-((1-(3-cyano-2-(6-(4-cyanophenyl)-2,6-diazaspiro[3.3]heptan-2-yl)-7-methyl-4-oxo-4H-pyrido[1,2-a]pyrimidin-9-yl)ethyl)amino)benzoic acid] |
| 492 | > 10000 | Cc1cc([C@@H](C)Nc2ccccc2C(=O)O)c2nc(C#Cc3ccc(C#N)cc3)c(C)c(=O)n2c1 [Example 11-253, (R)-2-((1-(2-((4-cyanophenyl)ethynyl)-3,7-dimethyl-4-oxo-4H-pyrido[1,2-a]pyrimidin-9-yl)ethyl)amino)benzoic acid] |
| 7640 | > 10000 | Cc1cc(C(C)Nc2ccccc2C(=O)O)c2nc(-c3cn[nH]c3)cc(=O)n2c1 (stereo not shown) [Example 11-373, 2-((1-(7-methyl-4-oxo-2-(1H-pyrazol-4-yl)-4H-pyrido[1,2-a]pyrimidin-9-yl)ethyl)amino)benzoic acid] |
| 139 | > 10000 | Cc1cc([C@@H](C)Nc2ccccc2C(=O)O)c2nc(N3CCC(N4CCC(F)(F)CC4)CC3)c(C)c(=O)n2c1 [Example 11-23, (R)-2-((1-(2-(4,4-difluoro-[1,4′-bipiperidin]-1′-yl)-3,7-dimethyl-4-oxo-4H-pyrido[1,2-a]pyrimidin-9-yl)ethyl)amino)benzoic acid] |

| Structure (SMILES) | IC50 [1] [nM] | IC50 [2] [nM] |
| --- | --- | --- |
| Cc1cc([C@@H](C)Nc2ccccc2C(=O)O)c2nc(N3C4CC3CN(c3ccc(C#N)cc3)C4)c(C)c(=O)n2c1 [Example 11-181, 2-(((1R)-1-(2-(3-(4-cyanophenyl)-3,6-diazabicyclo[3.1.1]heptan-6-yl)-3,7-dimethyl-4-oxo-4H-pyrido[1,2-a]pyrimidin-9-yl)ethyl)amino)benzoic acid] | > 10000 | > 10000 |
